The structures appear in SMILES notation.

The assay has as its target KRasG12C (M1-K169, biotinylated on the N-terminus) (Homo sapiens (Human), UniProt P01116, G12C). Nature of the assay: Covalent competition assay (scintillation proximity assay, competition with radiolabeled covalent probe Compound B). The format is binding. To be noted: in vitro KRASG12C activity; 10 nM KRasG12C:GDP, 25 nM radio-ligand and 475 nM unlabelled ligand, incubated 2 hours; read-out: Covalent Competition Assay IC50. The gist of the method:
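Biotinylated KRasG12C (M1-K169):GDP incubated 2 h with agitation with serially diluted compounds premixed with a fixed concentration of radiolabeled covalent probe; scintillation proximity read-out of competition for covalent modification. Buffer 20 mM Tris-HCl pH 7.5, 150 mM NaCl, 0.1 mM MgCl2, 0.01% Tween-20. IC50 from 4-parameter fit.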
A general note: Scintillation proximity formats need no separation of bound from free tracer.
In the case of `C=CC(=O)N1CC2(CC(n3nc(-c4cscn4)c(-c4c(Cl)c(C)cc5[nH]ncc45)c3C)C2)C1` (single isomer, unassigned) [Example 51a, 1-(6-(4-(5-chloro-6-methyl-1H-indazol-4-yl)-5-methyl-3-(thiazol-4-yl)-1H-pyrazol-1-yl)-2-azaspiro[3.3]heptan-2-yl)prop-2-en-1-one], the IC50 turned out to be 465 nM. Consider `C=CC(=O)N1CC2(CC(n3nc(-c4cscn4)c(-c4c(Cl)c(C)cc5[nH]ncc45)c3C)C2)C1` (single isomer, unassigned) [Example 51b, 1-(6-(4-(5-chloro-6-methyl-1H-indazol-4-yl)-5-methyl-3-(thiazol-4-yl)-1H-pyrazol-1-yl)-2-azaspiro[3.3]heptan-2-yl)prop-2-en-1-one], for which the IC50 came out at 36100 nM. Then `C=CC(=O)N1CC2(CC(n3nc(-c4ccc5c(c4)C(=O)OC5)c(-c4c(Cl)c(C)cc5[nH]ncc45)c3C)C2)C1` (single isomer, unassigned) [Example 54a], with 360 nM; and `C=CC(=O)N1CC2(CC(n3nc(-c4ccc5c(c4)C(=O)OC5)c(-c4c(Cl)c(C)cc5[nH]ncc45)c3C)C2)C1` (single isomer, unassigned) [Example 54b], with above 50000 nM; and `C=CC(=O)N1CC2(CC(n3nc(-c4ccc(O)cc4)c(-c4c(Cl)c(C)cc5[nH]ncc45)c3C)C2)C1` (single isomer, unassigned) [Example 57a], with 33 nM. Then `C=CC(=O)N1CC2(CC(n3nc(-c4ccc(O)cc4)c(-c4c(Cl)c(C)cc5[nH]ncc45)c3C)C2)C1` (single isomer, unassigned) [Example 57b], with 3200 nM. In the case of `C=CC(=O)N1CC2(CC(n3nc(-c4ccc(O)cc4F)c(-c4c(Cl)c(C)cc5[nH]ncc45)c3C)C2)C1` (single isomer, unassigned) [Example 58a] it was 64 nM. On to `C=CC(=O)N1CC2(CC(n3nc(-c4ccc(O)cc4F)c(-c4c(Cl)c(C)cc5[nH]ncc45)c3C)C2)C1` (single isomer, unassigned) [Example 58b], for which the IC50 is above 5000 nM.

Regarding `C=CC(=O)N1CC2(CC(n3nc(-c4cc5ccncc5[nH]4)c(-c4c(Cl)c(C)cc5[nH]ncc45)c3C)C2)C1` (single isomer, unassigned) [Example 59a, 1-(6-(4-(5-chloro-6-methyl-1H-indazol-4-yl)-5-methyl-3-(1H-pyrrolo[2,3-c]pyridin-2-yl)-1H-pyrazol-1-yl)-2-azaspiro[3.3]heptan-2-yl)prop-2-en-1-one], the IC50 is 173 nM. In the case of `C=CC(=O)N1CC2(CC(n3nc(-c4cc5ccncc5[nH]4)c(-c4c(Cl)c(C)cc5[nH]ncc45)c3C)C2)C1` (single isomer, unassigned) [Example 59b, 1-(6-(4-(5-chloro-6-methyl-1H-indazol-4-yl)-5-methyl-3-(1H-pyrrolo[2,3-c]pyridin-2-yl)-1H-pyrazol-1-yl)-2-azaspiro[3.3]heptan-2-yl)prop-2-en-1-one] it was above 50000 nM; in that of `C=CC(=O)N1CC2(CC(n3nc(-c4ccc(OCCOC)cc4F)c(-c4c(Cl)c(C)cc5[nH]ncc45)c3C)C2)C1` (single isomer, unassigned) [Example 60a, 1-(6-{(4M)-4-(5-Chloro-6-methyl-1H-indazol-4-yl)-3-[2-fluoro-4-(2-methoxyethoxy)phenyl]-5-methyl-1H-pryazol-1-yl}-2-azaspiro[3.3]heptan-2-yl)prop2-en-1-one], 51 nM. As for `C=CC(=O)N1CC2(CC(n3nc(-c4ccc(OCCOC)cc4F)c(-c4c(Cl)c(C)cc5[nH]ncc45)c3C)C2)C1` (single isomer, unassigned) [Example 60b, 1-(6-(4-(5-chloro-6-methyl-1H-indazol-4-yl)-3-(2-fluoro-4-(2-methoxyethoxy)phenyl)-5-methyl-1H-pyrazol-1-yl)-2-azaspiro[3.3]heptan-2-yl)prop-2-en-1-one], the IC50 was above 5000 nM. Take `C=CC(=O)N1CC2(CC(n3nc(-c4ccc(NCCOC)cc4F)c(-c4c(Cl)c(C)cc5[nH]ncc45)c3C)C2)C1` (single isomer, unassigned) [Example 61a, 1-(6-(4-(5-chloro-6-methyl-1H-indazol-4-yl)-3-(2-fluoro-4-((2-methoxyethyl)amino)phenyl)-5-methyl-1H-pyrazol-1-yl)-2-azaspiro[3.3]heptan-2-yl)prop-2-en-1-one]: the IC50 was 27 nM. In the case of `C=CC(=O)N1CC2(CC(n3nc(-c4ccc(NCCOC)cc4F)c(-c4c(Cl)c(C)cc5[nH]ncc45)c3C)C2)C1` (single isomer, unassigned) [Example 61b, 1-(6-(4-(5-chloro-6-methyl-1H-indazol-4-yl)-3-(2-fluoro-4-((2-methoxyethyl)amino)phenyl)-5-methyl-1H-pyrazol-1-yl)-2-azaspiro[3.3]heptan-2-yl)prop-2-en-1-one] it was above 5000 nM. In the case of `C=CC(=O)N1CC2(CC(n3nc(-c4ccc(C(=O)NCCOC)cc4)c(-c4c(Cl)c(C)cc5[nH]ncc45)c3C)C2)C1` (single isomer, unassigned) [Example 62a, 4-(1-(2-acryloyl-2-azaspiro[3.3]heptan-6-yl)-4-(5-chloro-6-methyl-1H-indazol-4-yl)-5-methyl-1H-pyrazol-3-yl)-N-(2-methoxyethyl)benzamide] it was 45 nM; in that of `C=CC(=O)N1CC2(CC(n3nc(-c4ccc(C(=O)NCCOC)cc4)c(-c4c(Cl)c(C)cc5[nH]ncc45)c3C)C2)C1` (single isomer, unassigned) [Example 62b, 4-(1-(2-acryloyl-2-azaspiro[3.3]heptan-6-yl)-4-(5-chloro-6-methyl-1H-indazol-4-yl)-5-methyl-1H-pyrazol-3-yl)-N-(2-methoxyethyl)benzamide], 19300 nM; in that of `C=CC(=O)N1CC2(CC(n3nc(-c4ccc(C(=O)NCCOC)c(F)c4)c(-c4c(Cl)c(C)cc5[nH]ncc45)c3C)C2)C1` (single isomer, unassigned) [Example 63a], 88 nM. In the case of `C=CC(=O)N1CC2(CC(n3nc(-c4ccc(C(=O)NCCOC)c(F)c4)c(-c4c(Cl)c(C)cc5[nH]ncc45)c3C)C2)C1` (single isomer, unassigned) [Example 63b] it was 33800 nM; in that of `C=CC(=O)N1CC2(CC(n3nc(-c4ccc(C(=O)NCCOC)nc4)c(-c4c(Cl)c(C)cc5[nH]ncc45)c3C)C2)C1` (single isomer, unassigned) [Example 64a], 55 nM; in that of `C=CC(=O)N1CC2(CC(n3nc(-c4ccc(C(=O)NCCOC)nc4)c(-c4c(Cl)c(C)cc5[nH]ncc45)c3C)C2)C1` (single isomer, unassigned) [Example 64b], 24500 nM. On to `C=CC(=O)N1CC2(CC(n3nc(-c4ccc(C(=O)NCCN(C)C)cc4)c(-c4c(Cl)c(C)cc5[nH]ncc45)c3C)C2)C1` (single isomer, unassigned) [Example 65a], for which the IC50 was found to be 46 nM. Then `C=CC(=O)N1CC2(CC(n3nc(-c4ccc(C(=O)NCCN(C)C)cc4)c(-c4c(Cl)c(C)cc5[nH]ncc45)c3C)C2)C1` (single isomer, unassigned) [Example 65b], with 17400 nM; and `C=CC(=O)N1CC2(CC(n3nc(-c4ccc(C(=O)N(C)CCOC)cc4)c(-c4c(Cl)c(C)cc5[nH]ncc45)c3C)C2)C1` (single isomer, unassigned) [Example 66a, 4-(1-(2-acryloyl-2-azaspiro[3.3]heptan-6-yl)-4-(5-chloro-6-methyl-1H-indazol-4-yl)-5-methyl-1H-pyrazol-3-yl)-N-(2-methoxyethyl)-N-methylbenzamide], with 240 nM.

As for `C=CC(=O)N1CC2(CC(n3nc(-c4ccc(C(=O)N(C)CCOC)cc4)c(-c4c(Cl)c(C)cc5[nH]ncc45)c3C)C2)C1` (single isomer, unassigned) [Example 66b, 4-(1-(2-acryloyl-2-azaspiro[3.3]heptan-6-yl)-4-(5-chloro-6-methyl-1H-indazol-4-yl)-5-methyl-1H-pyrazol-3-yl)-N-(2-methoxyethyl)-N-methylbenzamide], the IC50 is 4300 nM. In the case of `C=CC(=O)N1CC2(CC(n3nc(-c4ccc(C(=O)N(C)CC(C)(C)O)cc4)c(-c4c(Cl)c(C)cc5[nH]ncc45)c3C)C2)C1` (single isomer, unassigned) [Example 67a] it was 202 nM.

Turning to `C=CC(=O)N1CC2(CC(n3nc(-c4ccc(C(=O)N(C)CC(C)(C)O)cc4)c(-c4c(Cl)c(C)cc5[nH]ncc45)c3C)C2)C1` (single isomer, unassigned) [Example 67b], the IC50 worked out at 12100 nM.

On to `C=CC(=O)N1CC2(CC(n3nc(-c4ccc(C(=O)O)cc4)c(-c4c(Cl)c(C)cc5[nH]ncc45)c3C)C2)C1` (single isomer, unassigned) [Example 68a], for which the IC50 was found to be 59 nM. In the case of `C=CC(=O)N1CC2(CC(n3nc(-c4ccc(C(=O)O)cc4)c(-c4c(Cl)c(C)cc5[nH]ncc45)c3C)C2)C1` (single isomer, unassigned) [Example 68b] it was 1900 nM. Then `C=CC(=O)N1CC2(CC(n3nc(-c4ccc5nn(CCOC)cc5c4)c(-c4c(Cl)c(C)cc5[nH]nc(N)c45)c3C)C2)C1` (single isomer, unassigned) [Example 69a, 1-(6-{(4M)-4-(3-Amino-5-chloro-6-methyl-1H-indazol-4-yl)-3-[2-(2-methoxyethyl)-2H-indazol-5-yl]-5-methyl-1H-pyrazol-1-yl}-2-azaspiro[3.3]heptan-2-yl)prop-2-en-1-one], with 9 nM; and `C=CC(=O)N1CC2(CC(n3nc(-c4ccc5nn(CCOC)cc5c4)c(-c4c(Cl)c(C)cc5[nH]nc(N)c45)c3C)C2)C1` (single isomer, unassigned) [Example 69b, 1-(6-(4-(3-amino-5-chloro-6-methyl-1H-indazol-4-yl)-3-(2-(2-methoxyethyl)-2H-indazol-5-yl)-5-methyl-1H-pyrazol-1-yl)-2-azaspiro[3.3]heptan-2-yl)prop-2-en-1-one], with 840 nM.

In general, IC50 refers to the point on the concentration scale where inhibition reaches its midpoint.

The values are drawn from US11702409B2, “Pyrazolyl derivatives useful as anti-cancer agents” (NOVARTIS AG, priority 2019, dated 2023).
